Data taken from PMC7717600, “Novel [(N-alkyl-3-indolylmethylene)hydrazono]oxindoles arrest cell cycle and induce cell apoptosis by inhibiting CDK2 and Bcl-2: synthesis, biological evaluation and in silico studies” (Journal of Enzyme Inhibition and Medicinal Chemistry, 2020).
Where two headings read alike, the source gives them in different places.

How the values were obtained:
[1] = system: breast T-47D cancer cells; test: Cell cycle analysis by DNA flow cytometry; assay type: cell-based, human; settings: 8a at GI50 concentration (0.41 µM), 24 h
Description: were washed twice with ice-cold phosphate buffered saline (PBS). Subsequently, the treated cells were collected by centrifugation, fixed in ice-cold 70% (v/v) ethanol, washed with PBS, re-suspended with 100 μg/mL RNase, stained with 40 μg/mL PI, and analyzed by flow cytometry using FACS Calibur (Becton Dickinson, BD, Franklin Lakes, NJ, USA). The cell cycle distributions were calculated using CellQuest software 5.1 (Becton Dickinson).

[2] = target: Bcl-2 (Homo sapiens, UniProt P10415); test: Bcl-2 inhibitory activity; assay type: biochemical; settings: Bcl-2, mean ± SE of three
Sequence of Bcl-2 (P10415 whole entry): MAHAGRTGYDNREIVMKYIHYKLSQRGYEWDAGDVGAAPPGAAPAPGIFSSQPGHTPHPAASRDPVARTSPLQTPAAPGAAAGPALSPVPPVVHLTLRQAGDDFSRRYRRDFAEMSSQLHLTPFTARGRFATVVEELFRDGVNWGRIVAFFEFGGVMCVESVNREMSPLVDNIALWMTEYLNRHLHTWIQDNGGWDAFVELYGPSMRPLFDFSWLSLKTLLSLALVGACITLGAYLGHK
Description: These assays were carried out as reported earlier[38]^,[39].

[3] = system: HL-60(TB); test: cells; settings: Homo sapiens
[4] = system: K-562; test: cells; settings: Homo sapiens
[5] = system: RPMI-8226; test: cells; settings: Homo sapiens
[6] = system: SR; test: cells; settings: Homo sapiens
[7] = system: A549/ATCC; test: cells; settings: Homo sapiens
[8] = system: EKVX; test: cells; settings: Homo sapiens
[9] = system: HOP-62; test: cells; settings: Homo sapiens
[10] = system: NCI-H226; test: cells; settings: Homo sapiens
[11] = system: NCI-H23; test: cells; settings: Homo sapiens
[12] = system: HCT-116; test: cells; settings: Homo sapiens
[13] = system: HCT-15; test: cells; settings: Homo sapiens
[14] = system: KM12; test: cells; settings: Homo sapiens
[15] = system: SF-268; test: cells; settings: Homo sapiens
[16] = system: SF-295; test: cells; settings: Homo sapiens
[17] = system: SNB-75; test: cells; settings: Homo sapiens
[18] = system: SK-MEL-5; test: cells; settings: Homo sapiens
[19] = system: UACC-62; test: cells; settings: Homo sapiens
[20] = system: OVCAR-3; test: cells; settings: Homo sapiens
[21] = system: OVCAR-5; test: cells; settings: Homo sapiens
[22] = system: OVCAR-8; test: cells; settings: Homo sapiens
[23] = system: SK-OV-3; test: cells; settings: Homo sapiens, SK-OV-3, read-out: LC50
[24] = system: 786-0; test: cells; settings: Homo sapiens
[25] = system: A498; test: cells; settings: Homo sapiens
[26] = system: ACHN; test: cells; settings: Homo sapiens
[27] = system: RXF 393; test: cells; settings: Homo sapiens
[28] = system: UO-31; test: cells; settings: Homo sapiens
[29] = system: MCF7; test: cells; settings: Homo sapiens
[30] = system: MDA-MB-231/ATCC; test: cells; settings: Homo sapiens
[31] = system: HS 578T; test: cells; settings: Homo sapiens
[32] = system: T-47D; test: cells; settings: Homo sapiens, T47D
[33] = system: MDA-MB-468; test: cells; settings: Homo sapiens
[34] = system: panel of 59 human cancer cell lines; test: NCI screening, panel and subpanel summaries; settings: for GI50: Homo sapiens
Description: GI50 values reflect the level for growth inhibitory effect, whereas TGI represents cytostatic impact. In addition, LC50 parameter is considered to be the cytotoxicity parameter for the examined hybrid.
Furthermore, dividing the full-panel MG-MID (µM) for the examined derivative by its individual subpanel MG-MID (µM) provides an index which is regarded as a measure for its selectivity.
The NCI-USA anticancer screening was carried out following the NCI, Bethesda, Drug Evaluation Branch protocol[22–24], utilising the SRB protein assay[21], as reported earlier[34]^,[35].
NCI-in vitro antitumor activity towards 59 cancer cell lines
The cytotoxicity assays were performed at National Cancer Institute (NCI), Bethesda, USA (against 59 cell lines). The human tumor cell lines of the cancer screening panel were grown in
screening experiment, cells were inoculated into 96 well microtiter plates in 100 µ at plating densities ranging from 5000 to 40,000 cells/well depending on the doubling time of individual
and 100% relative humidity for 24 h prior to addition of experimental drugs. After 24 h, two
plates of each cell line were fixed in situ with trichloroacetic acid (TCA), to represent a
measurement of the cell population for each cell line at the time of drug addition (Tz).
Experimental drugs were solubilized in dimethyl sulfoxide at 400-fold the desired final
maximum test concentration and stored frozen prior to use. At the time of drug addition, an
aliquot of frozen concentrate was thawed and diluted to twice the desired final maximum test
concentration with complete medium containing 50 µg/ml gentamicin. Additional four, 10-fold
or ½ log serial dilutions were made to provide a total of five drug concentrations plus control.
Aliquots of 100 µl of these different drug dilutions were added to the appropriate microtiter wells
already containing 100 µl of medium, resulting in the required final drug concentrations.
Triplicate wells were prepared for each individual dose. Following drug addition, the plates were

Compound: CCCn1cc(C=NN=C2C(=O)Nc3ccc(C)cc32)c2ccccc21 [Compound 8a]
- cell population in sub-G1 phase ([1]; control 1.25%): 17.73%
- G2/M phase fraction ([1]; control 19.19%): 34.05%
- IC50 [2]: 0.46 ± 0.02 µM
- GI50 ([3]; HL-60): 1.31 µM
- CC50 ([3]; HL-60, read-out: LC50): > 100 µM
- GI50 ([4]; K562): 2.22 µM
- CC50 ([4]; K562, read-out: LC50): > 100 µM
- GI50 ([5]; RPMI-8226): 1.33 µM
- CC50 ([5]; RPMI-8226, read-out: LC50): > 100 µM
- GI50 [6]: 0.521 µM
- CC50 ([6]; read-out: LC50): > 100 µM
- GI50 ([7]; A549): 7.18 µM
- CC50 ([7]; A549, read-out: LC50): > 100 µM
- GI50 [8]: 2.36 µM
- CC50 ([8]; read-out: LC50): > 100 µM
- GI50 ([9]; HOP-62): 4.17 µM
- CC50 ([9]; HOP-62, read-out: LC50): > 100 µM
- GI50 ([10]; NCI-H226): 2.95 µM
- CC50 ([10]; NCI-H226, read-out: LC50): > 100 µM
- GI50 ([11]; NCI-H23): 3.13 µM
- CC50 ([11]; NCI-H23, read-out: LC50): > 100 µM
- GI50 ([12]; HCT-116): 1.75 µM
- CC50 ([12]; HCT-116, read-out: LC50, HCT-116): 19 µM
- GI50 ([13]; HCT-15): 2.63 µM
- CC50 ([13]; HCT-15, read-out: LC50): > 100 µM
- GI50 ([14]; KM12): 3.22 µM
- CC50 ([14]; KM12, read-out: LC50): > 100 µM
- GI50 ([15]; SF-268): 3.33 µM
- CC50 ([15]; SF-268, read-out: LC50): > 100 µM
- GI50 ([16]; SF-295): 8.41 µM
- CC50 ([16]; SF-295, read-out: LC50): > 100 µM
- GI50 ([17]; SNB-75): 2.31 µM
- CC50 ([17]; SNB-75, read-out: LC50): > 100 µM
- GI50 ([18]; SK-MEL-5): 2.86 µM
- CC50 ([18]; SK-MEL-5, read-out: LC50, SK-MEL-5): 47.4 µM
- GI50 ([19]; UACC-62): 2.24 µM
- CC50 ([19]; UACC-62, read-out: LC50): > 100 µM
- GI50 ([20]; OVCAR-3): 1.36 µM
- CC50 ([20]; OVCAR-3, read-out: LC50): > 100 µM
- GI50 ([21]; OVCAR-5): 4.04 µM
- CC50 ([21]; OVCAR-5, read-out: LC50): > 100 µM
- GI50 ([22]; OVCAR-8): 5.41 µM
- CC50 ([22]; OVCAR-8, read-out: LC50): > 100 µM
- CC50 [23]: > 100 µM
- GI50 ([24]; 786-0): 5.94 µM
- CC50 ([24]; 786-0, read-out: LC50): > 100 µM
- GI50 ([25]; A498): 1.37 µM
- CC50 ([25]; A498, read-out: LC50): > 100 µM
- GI50 [26]: 3.56 µM
- CC50 ([26]; read-out: LC50): > 100 µM
- GI50 ([27]; RXF 393): 2.17 µM
- CC50 ([27]; RXF 393, read-out: LC50): > 100 µM
- GI50 ([28]; UO-31): 2.28 µM
- CC50 ([28]; UO-31, read-out: LC50): > 100 µM
- GI50 ([29]; MCF7): 1.54 µM
- CC50 ([29]; MCF7, read-out: LC50): > 100 µM
- GI50 ([30]; MDA-MB-231): 1.81 µM
- CC50 ([30]; MDA-MB-231, read-out: LC50): > 100 µM
- GI50 [31]: 11.3 µM
- CC50 ([31]; read-out: LC50): > 100 µM
- GI50 ([32]; T-47D): 0.416 µM
- CC50 ([32]; read-out: LC50): > 100 µM
- GI50 ([33]; MDA-MB-468): 1.69 µM
- CC50 ([33]; MDA-MB-468, read-out: LC50): 79.4 µM
- mean GI % ([34]; 10 µM single dose, all cell lines): 59%
- Mean Growth Percent ([34]; 1.00E-5 Molar, one dose mean graph): 41.08%
- Selectivity index ([34]; Breast Cancer subpanel): 1.00
- Selectivity index ([34]; CNS Cancer subpanel): 0.75
- Selectivity index ([34]; Colon Cancer subpanel): 1.25
- GI50 ([34]; read-out: Full panel MG-MID (GI50), five-dose): 3.1 µM
- GI50 ([34]; read-out: GI50 values range, five-dose, across cell lines except UACC-257, TK-10, HS 578 T): 1.17 to 8.41 µM
- GI50 ([34]; read-out: MG-MID (GI50), Breast Cancer subpanel): 3.09 µM
- GI50 ([34]; read-out: MG-MID (GI50), CNS Cancer subpanel): 4.08 µM
- GI50 ([34]; read-out: MG-MID (GI50), Colon Cancer subpanel): 2.47 µM
- GI50 ([34]; read-out: MG-MID (GI50), Leukaemia subpanel): 1.33 µM
- GI50 ([34]; read-out: MG-MID (GI50), Melanoma subpanel): 3.45 µM
- GI50 ([34]; read-out: MG-MID (GI50), NSCL Cancer subpanel): 3.22 µM
- GI50 ([34]; read-out: MG-MID (GI50), Ovarian Cancer subpanel): 3.24 µM
- GI50 ([34]; read-out: MG-MID (GI50), Prostate Cancer subpanel): 2.85 µM
- GI50 ([34]; read-out: MG-MID (GI50), Renal Cancer subpanel): 4.23 µM
- GI50 ([34]; read-out: sub-panel GI50 (MG-MID) range, five-dose): 1.33 to 4.23 µM
- Selectivity index ([34]; Leukaemia subpanel): 2.33
- Selectivity index ([34]; Melanoma subpanel): 0.89
- Selectivity index ([34]; NSCL Cancer subpanel): 0.96
- Selectivity index ([34]; Ovarian Cancer subpanel): 0.95
- Selectivity index ([34]; Prostate Cancer subpanel): 1.08
- Selectivity index ([34]; Renal Cancer subpanel): 0.73
- Log10GI50 _MID ([34]; five-dose mean graph): -5.59 Molar
- Log10LC50 _MID ([34]; five-dose mean graph): -4.12 Molar
- Log10TGI _MID ([34]; five-dose mean graph): -4.69 Molar
- TGI range ([34]; five-dose, against 22 cancer cell lines): 2.96 to 8.03 µM
- TGI interval ([34]; five-dose, remaining cancer cell lines): 10.6 to 96.6 µM
- selectivity ratios range ([34]; full-panel MG-MID / subpanel MG-MID): 0.73 to 2.33
